What was measured:
[1] = target: T1, 5-hydroxytryptamine receptor 1A (Homo sapiens, UniProt P08908); experiment: Binding affinity towards 5-HT1A receptor using [3H]8-OH-DPAT as radioligand
T1 sequence (P08908 whole entry): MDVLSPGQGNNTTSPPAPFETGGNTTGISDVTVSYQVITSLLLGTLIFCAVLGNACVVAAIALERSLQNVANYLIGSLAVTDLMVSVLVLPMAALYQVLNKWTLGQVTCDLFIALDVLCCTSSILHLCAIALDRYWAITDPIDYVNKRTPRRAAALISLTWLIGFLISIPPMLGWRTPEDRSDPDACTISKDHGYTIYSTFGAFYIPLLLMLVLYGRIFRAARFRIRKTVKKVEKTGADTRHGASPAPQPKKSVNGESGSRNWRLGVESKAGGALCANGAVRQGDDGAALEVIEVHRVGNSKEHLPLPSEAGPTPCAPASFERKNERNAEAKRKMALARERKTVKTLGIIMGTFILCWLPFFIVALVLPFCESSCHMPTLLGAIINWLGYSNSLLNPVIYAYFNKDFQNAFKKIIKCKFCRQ

[2] = target: Sodium-dependent serotonin transporter (Rattus norvegicus) (UniProt P31652); experiment: Inhibitory activity against Serotonin transporter labeled with [3H]-paroxetine as radioligand at 100 nM concentration
Chain of Sodium-dependent serotonin transporter (Rattus norvegicus) (P31652 whole entry): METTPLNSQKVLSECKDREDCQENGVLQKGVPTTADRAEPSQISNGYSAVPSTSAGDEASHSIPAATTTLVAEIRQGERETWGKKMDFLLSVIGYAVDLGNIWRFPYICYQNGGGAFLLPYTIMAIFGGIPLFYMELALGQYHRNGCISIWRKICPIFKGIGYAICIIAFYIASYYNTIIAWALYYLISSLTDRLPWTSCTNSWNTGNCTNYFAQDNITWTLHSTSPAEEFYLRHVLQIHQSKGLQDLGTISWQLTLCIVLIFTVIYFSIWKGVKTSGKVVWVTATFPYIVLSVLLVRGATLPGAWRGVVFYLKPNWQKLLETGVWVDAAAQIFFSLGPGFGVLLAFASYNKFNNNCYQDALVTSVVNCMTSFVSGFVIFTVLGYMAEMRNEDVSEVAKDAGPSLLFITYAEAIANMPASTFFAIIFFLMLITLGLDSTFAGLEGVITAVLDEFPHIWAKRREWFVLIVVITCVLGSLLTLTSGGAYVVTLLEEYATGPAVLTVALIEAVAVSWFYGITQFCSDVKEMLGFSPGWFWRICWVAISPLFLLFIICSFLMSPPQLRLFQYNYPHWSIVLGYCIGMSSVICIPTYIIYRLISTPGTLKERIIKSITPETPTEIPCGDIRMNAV

[3] = target: T2, Sodium-dependent serotonin transporter (Rattus norvegicus, UniProt P31652); experiment: Binding affinity towards serotonin [5-HT] reuptake site labeled with [3H]paroxetine as radioligand
T2 sequence (P31652 whole entry): as above

[4] = target: T3, 5-hydroxytryptamine receptor 1A (Homo sapiens) (UniProt P08908); experiment: Maximal response as a result of 5-hydroxytryptamine 1A receptor-mediated stimulation of [35S]GTP-gamma-S, binding; type: functional
T3 sequence (whole entry): T1 sequence (P08908 whole entry)

[5] = target: T1, 5-hydroxytryptamine receptor 1A; experiment: Binding affinity was determined towards 5-hydroxytryptamine 1A receptor using [3H]8-OH-DPAT as radioligand
[6] = target: Sodium-dependent serotonin transporter (Rattus norvegicus) (UniProt P31652); experiment: Inhibitory activity against serotonin [5-HT] reuptake site labeled with [3H]paroxetine as radioligand at 100 nM concentration
[7] = target: Sodium-dependent serotonin transporter (Rattus norvegicus) (UniProt P31652); experiment: Inhibitory activity against serotonin [5-HT] reuptake site labeled with [3H]-paroxetine as radioligand at 100 nM concentration
[8] = target: T1, 5-hydroxytryptamine receptor 1A; experiment: Binding affinity towards 5-hydroxytryptamine 1A receptor using [3H]8-OH-DPAT as radioligand
[9] = target: T3, 5-hydroxytryptamine receptor 1A (Homo sapiens); experiment: Inhibitory activity against 5-hydroxytryptamine 1A receptor using [3H]-8-OH-DPAT as radioligand at 100 nM concentration
[10] = target: T3, 5-hydroxytryptamine receptor 1A (Homo sapiens); experiment: Maximal response as a result of 5-HT1A receptor-mediated stimulation of [35S]GTP-gamma-S, binding; type: functional
[11] = target: T2, Sodium-dependent serotonin transporter; experiment: Binding affinity towards Serotonin transporter labeled with [3H]paroxetine as radioligand

Ki [3] [nM] | Emax [4] [%] | Ki [5] [nM] | Compound | also measured
 |  |  | COc1ccc2sc(C3CCN(C[C@H](O)COc4cccc5[nH]ccc45)CC3)cc2c1 | Ki [1]: 1.44 nM; inhibition [2]: < 50%
17.4 | 12.1 | 10.4 | Cc1cc2c(OC[C@@H](O)CN3CCC(c4cc5c(C)cccc5s4)CC3)cccc2[nH]1 | 
 |  | 3.09 | Oc1ccc2cc(C3CCN(C[C@H](O)COc4cccc5[nH]ccc45)CC3)sc2c1 | inhibition [6]: < 50%
 |  | 6.07 | COc1ccc2c(C)c(C3CCN(C[C@H](O)COc4cccc5[nH]ccc45)CC3)sc2c1 | inhibition [7]: < 50%
37.2 | 12.5 | 7.12 | Oc1cccc2cc(C3CCN(C[C@H](O)COc4cccc5[nH]ccc45)CC3)sc12 | 
14 |  | 7.64 | O[C@H](COc1cccc2[nH]ccc12)CN1CCC(c2cc3ccc(Cl)cc3s2)CC1 | 
 |  |  | CC(C)Oc1ccc2cc(C3CCN(C[C@H](O)COc4cccc5[nH]ccc45)CC3)sc2c1 | Ki [8]: 19.9 nM; inhibition [2]: < 50%
11.3 | 12.6 | 15.3 | Cc1cc2c(OC[C@@H](O)CN3CCC(c4cc5ccc(F)cc5s4)CC3)cccc2[nH]1 | 
15.6 |  | 9.12 | O[C@H](COc1cccc2[nH]ccc12)CN1CCC(c2cc3c(Cl)cccc3s2)CC1 | 
105 | 11 | 7.21 | O[C@H](COc1cccc2[nH]ccc12)CN1CCC(c2cc3cc(Cl)ccc3s2)CC1 | 
50.5 | 13.8 | 12.7 | Cc1ccc2cc(C3CCN(C[C@H](O)COc4cccc5[nH]ccc45)CC3)sc2c1 | 
 |  | 22.6 | Cc1ccc2cc(C3CCN(C[C@H](O)COc4cccc5[nH]c(C)cc45)CC3)sc2c1 | inhibition [6]: < 50%
34.2 | 11.6 | 14.1 | Cc1cc2c(OC[C@@H](O)CN3CCC(c4cc5c(F)cccc5s4)CC3)cccc2[nH]1 | 
15.9 | 11.2 | 6.79 | O[C@H](COc1cccc2[nH]ccc12)CN1CCC(c2cc3c(F)cccc3s2)CC1 | 
 |  |  | Cc1cc(C)c2cc(C3CCN(C[C@H](O)COc4cccc5[nH]ccc45)CC3)sc2c1 | inhibition [9]: < 50%; inhibition [7]: < 50%
 |  |  | COc1cccc2cc(C3CCN(C[C@H](O)COc4cccc5[nH]ccc45)CC3)sc12 | Ki [8]: 6.13 nM; Emax [10]: 9.32%; Ki [11]: 94.3 nM
51.2 | 9.05 | 4.83 | COc1cccc2sc(C3CCN(C[C@H](O)COc4cccc5[nH]c(C)cc45)CC3)cc12 | 
 |  |  | CC(C)Oc1cccc2sc(C3CCN(C[C@H](O)COc4cccc5[nH]ccc45)CC3)cc12 | Ki [1]: 7.45 nM; inhibition [2]: < 50%
52.1 | 13.4 | 27.8 | Cc1cc(C)c2cc(C3CCN(C[C@H](O)COc4cccc5[nH]c(C)cc45)CC3)sc2c1 | 
12.6 | 7.47 |  | COc1cccc2sc(C3CCN(C[C@H](O)COc4cccc5[nH]ccc45)CC3)cc12 | 
 |  |  | COc1ccc2cc(C3CCN(C[C@H](O)COc4cccc5[nH]ccc45)CC3)sc2c1 | Ki [8]: 3.13 nM; Emax [10]: 4.92%; Ki [11]: 68.7 nM
1.99 | 11.7 | 9.31 | O[C@H](COc1cccc2[nH]ccc12)CN1CCC(c2cc3ccc(F)cc3s2)CC1 | 
11.8 | 13.2 | 29.4 | O[C@H](COc1cccc2[nH]ccc12)CN1CCC(c2cc3cc(F)ccc3s2)CC1 | 
3.69 | 17 | 4.7 | Cc1cccc2sc(C3CCN(C[C@H](O)COc4cccc5[nH]ccc45)CC3)cc12 | 
5.27 | 12.1 | 7.5 | Cc1cc2c(OC[C@@H](O)CN3CCC(c4cc5cc(F)ccc5s4)CC3)cccc2[nH]1 | 
16.7 | 12.3 | 3.7 | O[C@H](COc1cccc2[nH]ccc12)CN1CCC(c2cc3ccccc3s2)CC1 | 
 |  | 5.17 | Cc1c(C2CCN(C[C@H](O)COc3cccc4[nH]ccc34)CC2)sc2ccc(F)cc12 | inhibition [6]: < 50%
24.1 |  | 6.28 | Cc1c(C2CCN(C[C@H](O)COc3cccc4[nH]ccc34)CC2)sc2ccccc12 | 

Reference: ChEMBL document CHEMBL1136520, “Advances toward new antidepressants beyond SSRIs: 1-aryloxy-3-piperidinylpropan-2-ols with dual 5-HT1A receptor antagonism/SSRI activities. Part 1” (Bioorg Med Chem Lett, 2003)
